“And” between values parts separate entries of the source, which are not always exact repeats. Identical values can stand only once.
Test system: MDA-MB-468 complex spheroids with HUVEC/MSC, viability
Assay: Anticancer human tumor MDA-MB-468 cell line growth inhibition;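 note: spheroids exposed to agents for seven days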;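 for viability, T/C: 100% = DMSO vehicle control viability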
Details: for viability, T/C: stronger effect = lower value
Procedure, shortened: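 Multicellular complex spheroids of tumor cells with human endothelial cells (HUVEC) and mesenchymal stem cells; the LSD1 inhibitor iadademstat was combined with standard-of-care or investigational agents. Top concentration at or near clinical Cmax, half-log dilutions; final DMSO ≤0.25%.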

[1] = curve of first compound, second compound 0.1 µM
[2] = curve of first compound, second compound 0.316 µM
[3] = curve of first compound, second compound 1 µM
[4] = curve of first compound, second compound 3.16 µM
[5] = curve of first compound, second compound 10 µM
[6] = second compound 0.1 µM, first compound 0.000316 µM
[7] = second compound 0.1 µM, first compound 0.001 µM
[8] = second compound 0.1 µM, first compound 0.00316 µM
[9] = second compound 0.1 µM, first compound 0.01 µM
[10] = second compound 0.1 µM, first compound 0.0316 µM
[11] = second compound 0.1 µM, first compound 0.1 µM
[12] = second compound 0.316 µM, first compound 0.000316 µM
[13] = second compound 0.316 µM, first compound 0.001 µM
[14] = second compound 0.316 µM, first compound 0.00316 µM
[15] = second compound 0.316 µM, first compound 0.01 µM
[16] = second compound 0.316 µM, first compound 0.0316 µM
[17] = second compound 0.316 µM, first compound 0.1 µM
[18] = second compound 1 µM, first compound 0.000316 µM
[19] = second compound 1 µM, first compound 0.001 µM
[20] = second compound 1 µM, first compound 0.00316 µM
[21] = second compound 1 µM, first compound 0.01 µM
[22] = second compound 1 µM, first compound 0.0316 µM
[23] = second compound 1 µM, first compound 0.1 µM
[24] = second compound 3.16 µM, first compound 0.000316 µM
[25] = second compound 3.16 µM, first compound 0.001 µM
[26] = second compound 3.16 µM, first compound 0.00316 µM
[27] = second compound 3.16 µM, first compound 0.01 µM
[28] = second compound 3.16 µM, first compound 0.0316 µM
[29] = second compound 3.16 µM, first compound 0.1 µM
[30] = second compound 10 µM, first compound 0.000316 µM
[31] = second compound 10 µM, first compound 0.001 µM
[32] = second compound 10 µM, first compound 0.00316 µM
[33] = second compound 10 µM, first compound 0.01 µM
[34] = second compound 10 µM, first compound 0.0316 µM
[35] = second compound 10 µM, first compound 0.1 µM

SMILES: Nc1ccccc1NC(=O)c1ccc(CNC(=O)OCc2cccnc2)cc1
- viability, T/C (compound 0.00949 µM): 98.7% and 100%
- viability, T/C (compound 0.03 µM): 99.5% and 103%
- viability, T/C (compound 0.0949 µM): 70.2% and 36.1%
- viability, T/C (compound 0.3 µM): 14.8% and 2.86%
- viability, T/C (compound 0.949 µM): 3.01% and 0.37%
- viability, T/C (compound 3 µM): 1.7% and 0.2%
- IC50 (curve of compound): 145 nM and 74.3 nM

SMILES: CC(C)CC(NC(=O)CNC(=O)c1cc(Cl)ccc1Cl)B1OC(=O)CC(CC(=O)O)(C(=O)O)O1 (configuration not stated) + NC1CC1c1ccc(-c2cccc(O)c2)cc1
- IC50 [1]: 2.57 nM
- IC50 [2]: 2.49 nM
- IC50 [3]: 2.74 nM
- IC50 [4]: 2.32 nM
- IC50 [5]: 1.54 nM
- viability, T/C [6]: 111%
- viability, T/C [7]: 106%
- viability, T/C [8]: 37.6%
- viability, T/C [9]: 4.72%
- viability, T/C [10]: 0.18%
- viability, T/C [11]: 0.16%
- viability, T/C [12]: 118%
- viability, T/C [13]: 94.2%
- viability, T/C [14]: 39%
- viability, T/C [15]: 5.32%
- viability, T/C [16]: 0.16%
- viability, T/C [17]: 0.15%
- viability, T/C [18]: 105%
- viability, T/C [19]: 109%
- viability, T/C [20]: 41.8%
- viability, T/C [21]: 5.14%
- viability, T/C [22]: 0.2%
- viability, T/C [23]: 0.14%
- viability, T/C [24]: 106%
- viability, T/C [25]: 100%
- viability, T/C [26]: 31.4%
- viability, T/C [27]: 5.19%
- viability, T/C [28]: 0.17%
- viability, T/C [29]: 0.14%
- viability, T/C [30]: 71.4%
- viability, T/C [31]: 62.5%
- viability, T/C [32]: 28.9%
- viability, T/C [33]: 4%
- viability, T/C [34]: 0.22%
- viability, T/C [35]: 0.24%

SMILES: CC(C)CC(NC(=O)C(Cc1ccccc1)NC(=O)c1cnccn1)B(O)O (configuration not stated) + NC1CC1c1ccc(-c2cccc(O)c2)cc1
- IC50 [1]: < 0.316 nM
- IC50 [2]: < 0.316 nM
- IC50 [3]: < 0.316 nM
- IC50 [4]: < 0.316 nM
- IC50 [5]: < 0.316 nM
- viability, T/C [6]: 5.95%
- viability, T/C [7]: 0.09%
- viability, T/C [8]: 0.06%
- viability, T/C [9]: 0.05%
- viability, T/C [10]: 0.08%
- viability, T/C [11]: 0.18%
- viability, T/C [12]: 6.43%
- viability, T/C [13]: 0.09%
- viability, T/C [14]: 0.05%
- viability, T/C [15]: 0.07%
- viability, T/C [16]: 0.08%
- viability, T/C [17]: 0.17%
- viability, T/C [18]: 5.88%
- viability, T/C [19]: 0.08%
- viability, T/C [20]: 0.05%
- viability, T/C [21]: 0.04%
- viability, T/C [22]: 0.06%
- viability, T/C [23]: 0.17%
- viability, T/C [24]: 5.66%
- viability, T/C [25]: 0.06%
- viability, T/C [26]: 0.07%
- viability, T/C [27]: 0.04%
- viability, T/C [28]: 0.14%
- viability, T/C [29]: 0.15%
- viability, T/C [30]: 3.55%
- viability, T/C [31]: 0.16%
- viability, T/C [32]: 0.12%
- viability, T/C [33]: 0.12%
- viability, T/C [34]: 0.14%
- viability, T/C [35]: 0.2%
